“And” between values parts separate entries of the source, which are not always exact repeats. Equal values may be shown once.
Tested on: 695427-040-R-J1-PDC complex spheroid viability
Assay: Anticancer human tumor 695427-040-R-J1-PDC patient-derived colon adenocarcinoma cell line growth inhibition [POLQ]
Conditions: for viability, T/C: stronger effect = lower value
Method: Multicellular complex tumor spheroid response to Polymerase (POL) inhibitors (novobiocin, ART-558, RP6685) in combination with a variety of drugs and investigational agents in selected tumor cell lines
The POL inhibitors (novobiocin, ART-558, and RP6685) were evaluated both individually and in combination with standard of care and investigational anticancer small molecules within a complex spheroid model of solid tumors. . Complex spheroids include a stromal component modeled by human endothelial cells (HUVEC) and fibroblasts modeled by human mesenchymal stem cells (MSCs). The concentration ranges selected for each drug and investigational agent were based upon clinically achievable concentrations if the clinical Cmax of the agent was known.
Compounds. The drugs and investigational agents: novobiocin (NSC847541), ART-558 (NSC835418), RP-6685 (NSC848927), peposertib (NSC802822), ceralasertib (NSC780249), elimusertib (NSC800525), camonsertib (NSC841442), AZD-1390 (NSC803789), olaparib (NSC753686), talazoparib (NSC767125), rucaparib (NSC756644), sotorasib (NSC818433), MRTX-1133 (NSC836407), SN-38 (NSC673596), topotecan (NSC609699), epotoside (NSC141540), doxorubicin (NSC123127), gemcitabine (NSC613327), 5-fluorouracil (NSC19893), paclitaxel (NSC125973), vemurafenib (NSC761431), MSA-2 (NSC828583), SN-011 (NSC837082), adavosertib (NSC754352), prexasertib (NSC758257), carboplatin (NSC241240) and oxaliplatin (NSC266046), were obtained from the National Cancer Institute (NCI) Developmental Therapeutics Program Chemical Repository (21). The FDA-approved anticancer drug set is available from the Developmental Therapeutics Program at https://dtp.cancer.gov/organization/dscb/obtaining/. […] The stock solutions were prepared in dimethyl sulfoxide (DMSO, Sigma-Aldrich, St. Louis, MO, cat. D2650), except for the platinum compounds which were prepared in saline (Quality Biological, Gaithersburg, MD, cat. 114-055-101), at 800-fold the tested concentration and stored at -70 degrees C prior to their use. All drugs and investigational agents were tested over a range starting from a high concentration at or near the clinical Cmax and decreasing in half-log increments. If the clinical Cmax for an agent had not been determined, the highest concentration tested was 10 microM, except for SN-38, which was tested at a high concentration of 1 microM.
Cell Culture. All cells were maintained in an incubator at 37 degrees C and 5% CO2 with 95% humidity. The PDC lines were cultured according to standard operating procedures established by the NCI PDMR (https://pdmr.cancer.gov). Table 3 of the manuscript, lists the cell lines along with the number of the three cell types plated to form the mct-spheroids and media for tumor cell growth. After thawing, all PDC lines, except 997537-175-T-J1-PDC and 415267-285-R-J2-PDC, were cultured in Matrigel-coated flasks prepared with a working solution of 1X Ham's F-12 nutrient mix, without supplementation (Thermo Fisher Scientific, cat. 11765054), 100 U/mL penicillin-streptomycin (Thermo Fisher Scientific, cat. 15140122), and 2.5% Matrigel (Corning Inc., Corning, NY, cat. 354248) for the first three passages. The two PDC lines 997537-175-T-J1-PDC and 415267-285-R-J2-PDC were cultured on uncoated flasks. The 857933-349-R-J2-PDC line was cultured in 6C/Colon 1B media containing advanced DMEM/F-12 (Thermo Fisher Scientific, cat. 12634028), 10 mM HEPES (Thermo Fisher Scientific, cat. 15630080), 1X GlutaMAX supplement (Thermo Fisher Scientific, cat. 35050061), 0.1 mg/mL primocin (InvivoGen, San Diego, CA, cat. ant-pm-2), 10% defined fetal bovine serum, heat inactivated (HyClone Laboratories Inc., Logan, UT, cat. SH30070.03HI), 50% L-WRN conditioned media (ATCC, cat. CRL-3276), 1.25 mM N-Acetyl-L-cysteine (Sigma-Aldrich, cat. A9165), 10 mM nicotinamide (Sigma-Aldrich, cat. N0636), 1X B-27 supplement (Thermo Fisher Scientific, cat. 17504044), 1X N-2 supplement (Thermo Fisher Scientific, cat. […]

[1] = compound alone, run of 10/31/2023
[2] = compound alone, run of 11/06/2023
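Further: spheroids exposed to compounds for seven days.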
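Wherever viability, T/C is given: 100% = DMSO vehicle control viability.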

For `COC1C(OC(N)=O)C(O)C(Oc2ccc3c(O)c(NC(=O)c4ccc(O)c(CC=C(C)C)c4)c(=O)oc3c2C)OC1(C)C` (configuration not stated), the viability, T/C (compound 0.0316 µM) was 104% [middle of 13 runs], the viability, T/C (compound 0.1 µM) was 104% [middle of 13 runs] and the viability, T/C (compound 0.316 µM) was 106% [middle of 13 runs]. For the same compound, the viability, T/C (compound 1 µM) was 106% [middle of 13 runs], the viability, T/C (compound 3.16 µM) was 110% [middle of 13 runs] and the viability, T/C (compound 10 µM) was 110% [middle of 13 runs]. For the same compound, the IC50 [1] was greater than 10 µM.
For `COc1cc(C2c3cc4c(cc3C(OC3OC5COC(C)OC5C(O)C3O)C3COC(=O)C23)OCO4)cc(OC)c1O` (configuration not stated), the viability, T/C (compound 0.0316 µM) was 95.6% and 105% and 95.5%, the viability, T/C (compound 0.1 µM) was 91.4% and 94.1% and 99% and the viability, T/C (compound 0.316 µM) was 96% and 96.6% and 109%. For the same compound, the viability, T/C (compound 1 µM) was 97.5% (2×) and 101%, the viability, T/C (compound 3.16 µM) was 91.6% and 99.4% and 94.1% and the viability, T/C (compound 10 µM) was 90.2% and 90.4% and 80.9%. For the same compound, the IC50 (curve of compound) was greater than 10 µM.
In the case of `COc1cc2cc(C(=O)CCC(=O)O)sc2cc1OC`, the viability, T/C (compound 0.0316 µM) is reported as 109% and 100% and 101%, the viability, T/C (compound 0.1 µM) is reported as 97.3% and 102% and 99.5% and the viability, T/C (compound 0.316 µM) is reported as 97.4% and 105% and 103%. For the same compound, the viability, T/C (compound 1 µM) was 104% and 105% and 107%, the viability, T/C (compound 3.16 µM) was 103% and 102% (2×) and the viability, T/C (compound 10 µM) was 99.8% and 93.7% and 102%. It also gave an IC50 (curve of compound) greater than 10 µM.
For `COc1ccc([C@@H](O)c2cc(-c3ncnc4cc(N5CCOCC5)ccc34)c(F)cc2Cl)nn1`, the viability, T/C (compound 0.0316 µM) was 108% and 103% (2×), the viability, T/C (compound 0.1 µM) was 91.8% and 86.1% and 99.5% and the viability, T/C (compound 0.316 µM) was 92.8% and 93.3% and 97.7%. For the same compound, the viability, T/C (compound 1 µM) was 91.9% and 94.2% and 96.2%, the viability, T/C (compound 3.16 µM) was 80.1% and 82.6% and 85% and the viability, T/C (compound 10 µM) was 50% and 59% and 56.5%. The IC50 (curve of compound) was greater than 10 µM.
With `COc1cccc(OCCCN)c1-c1cc(Nc2cnc(C#N)cn2)n[nH]1` the viability, T/C (compound 0.00316 µM) was 94.2% and 94.8% and 102%, the viability, T/C (compound 0.01 µM) was 84.4% and 93.3% and 91.1% and the viability, T/C (compound 0.0316 µM) was 80.9% and 87.1% and 92.6%. For the same compound, the viability, T/C (compound 0.1 µM) was 76% and 75.7% and 85.2%, the viability, T/C (compound 0.316 µM) was 53.1% and 74.3% and 72.6% and the viability, T/C (compound 1 µM) was 37.3% and 50.5% and 55.4%. The IC50 (curve of compound) was 0.448 µM and > 1 µM.
With `COc1cccc2c1C(=O)c1c(O)c3c(c(O)c1C2=O)CC(O)(C(=O)CO)CC3OC1CC(N)C(O)C(C)O1` (configuration not stated) the viability, T/C (compound 0.0316 µM) was 87.5% and 98.1% and 92.7%, the viability, T/C (compound 0.1 µM) was 96.2% and 87.2% and 90.7% and the viability, T/C (compound 0.316 µM) was 95% and 96.7% and 101%. The viability, T/C (compound 1 µM) was 71.2% and 89.7% and 82.5%, the viability, T/C (compound 3.16 µM) was 66% and 74% and 68.7% and the viability, T/C (compound 10 µM) was 57.1% and 69.8% and 53.8%. The IC50 (curve of compound) was greater than 10 µM.
In the case of `Cc1cccc(N(C)C(=O)C2C(O)CCN2c2nc(C)cc(C(F)(F)F)c2C#N)c1` (configuration not stated), the viability, T/C (compound 0.0316 µM) is reported as 102% [middle of 13 runs], the viability, T/C (compound 0.1 µM) is reported as 101% [middle of 13 runs] and the viability, T/C (compound 0.316 µM) is reported as 100% [middle of 13 runs]. For the same compound, the viability, T/C (compound 1 µM) was 100% [middle of 13 runs], the viability, T/C (compound 3.16 µM) was 99% [middle of 13 runs] and the viability, T/C (compound 10 µM) was 100% [middle of 13 runs]. The IC50 [1] was greater than 10 µM and the IC50 [2] was greater than 10 µM.
With `Cn1ncnc1[C@H]1c2n[nH]c(=O)c3cc(F)cc(c23)N[C@@H]1c1ccc(F)cc1` the viability, T/C (compound 0.000316 µM) was 105% and 96.4% and 102%, the viability, T/C (compound 0.001 µM) was 97.7% and 91% and 93.6% and the viability, T/C (compound 0.00316 µM) was 109% and 102% and 99.2%. The viability, T/C (compound 0.01 µM) was 101% and 109% and 104%, the viability, T/C (compound 0.0316 µM) was 106% and 113% and 101% and the viability, T/C (compound 0.1 µM) was 89.5% and 97.1% and 94.2%. It also gave an IC50 (curve of compound) greater than 0.1 µM.
`Nc1ccc(C#CCN(C(=O)Cc2ncc(C(F)(F)F)cc2C(F)(F)F)c2ccc(F)cc2)nn1` was tested, and the viability, T/C (compound 0.0316 µM) was 91.6% [middle of 13 runs], the viability, T/C (compound 0.1 µM) was 102% [middle of 13 runs] and the viability, T/C (compound 0.316 µM) was 101% [middle of 13 runs]. The viability, T/C (compound 1 µM) was 101% [middle of 13 runs], the viability, T/C (compound 3.16 µM) was 102% [middle of 13 runs] and the viability, T/C (compound 10 µM) was 105% [middle of 12 runs]. For the same compound, the IC50 [2] was greater than 10 µM.
In the case of `Nc1ccn(C2OC(CO)C(O)C2(F)F)c(=O)n1` (configuration not stated), the viability, T/C (compound 0.0316 µM) is reported as 90% and 87.3% (2×), the viability, T/C (compound 0.1 µM) is reported as 76.8% and 89.3% and 78.8% and the viability, T/C (compound 0.316 µM) is reported as 70.9% and 83.7% and 72%. For the same compound, the viability, T/C (compound 1 µM) was 71.8% and 78.5% and 69%, the viability, T/C (compound 3.16 µM) was 64.6% and 81.7% and 60.8% and the viability, T/C (compound 10 µM) was 57.5% and 64.6% and 53%. It also gave an IC50 (curve of compound) greater than 10 µM.
In the case of `O=C(Nc1ccc(O)c(NS(=O)(=O)c2ccc(F)cc2)c1)c1ccc(-c2ccccc2)cc1`, the viability, T/C (compound 0.0316 µM) is reported as 112% and 106% (2×), the viability, T/C (compound 0.1 µM) is reported as 94.9% and 102% and 99.2% and the viability, T/C (compound 0.316 µM) is reported as 99.2% and 96.5% and 105%. For the same compound, the viability, T/C (compound 1 µM) was 106% and 111% and 105%, the viability, T/C (compound 3.16 µM) was 102% and 101% and 110% and the viability, T/C (compound 10 µM) was 94% and 98.5% and 90.2%. It also gave an IC50 (curve of compound) greater than 10 µM.
In the case of `O=C(c1cc(Cc2n[nH]c(=O)c3ccccc23)ccc1F)N1CCN(C(=O)C2CC2)CC1`, the viability, T/C (compound 0.0316 µM) is reported as 102% and 101% (2×), the viability, T/C (compound 0.1 µM) is reported as 87.2% and 107% and 101% and the viability, T/C (compound 0.316 µM) is reported as 102% and 110% and 100%. For the same compound, the viability, T/C (compound 1 µM) was 99% and 107% and 102%, the viability, T/C (compound 3.16 µM) was 101% and 102% and 114% and the viability, T/C (compound 10 µM) was 97.8% and 97.4% and 107%. The IC50 (curve of compound) was greater than 10 µM.
In the case of `O=c1[nH]cc(F)c(=O)[nH]1`, the viability, T/C (compound 0.0316 µM) is reported as 105% (2×) and 104%, the viability, T/C (compound 0.1 µM) is reported as 95.7% and 106% and 103% and the viability, T/C (compound 0.316 µM) is reported as 93.2% and 102% and 99.6%. For the same compound, the viability, T/C (compound 1 µM) was 102% and 100% (2×), the viability, T/C (compound 3.16 µM) was 102% and 115% and 103% and the viability, T/C (compound 10 µM) was 96% and 111% and 99.7%. It also gave an IC50 (curve of compound) greater than 10 µM.
